Results as given in ChEMBL document CHEMBL4433219, “EC18 as a Tool To Understand the Role of HCN4 Channels in Mediating Hyperpolarization-Activated Current in Tissues” (ACS Med Chem Lett, 2019).
Activity calls are given as the source filed them. No cut-off for these calls is given here.

Experiments:
[1] = target: Potassium/sodium hyperpolarization-activated cyclic nucleotide-gated channel 1 (Mus musculus, UniProt O88704); test: Inhibition of mouse HCN1 expressed in HEK293 cells assessed as reduction in hyperpolarization activated current at holding potential of -80 mV by patch clamp assay; format: cell-based
[2] = tested on: Cardiac muscle of left ventricle; test: (§1) Effect on cardiac electrophysiological profile in Mongrel perfused dog heart left ventricular muscle stimulated at basic cycle length of 1000 milliseconds assessed as conduction time at 1 uM measured after 25 mins by glass capillary microelectrode based electrophysiology assay (reference value: 4.8 +/- 0.60 milliseconds); format: functional, Canis lupus familiaris
[3] = tested on: Cardiac muscle of left ventricle; test: as §1, with “maximum diastolic potential” for “conduction time”, “-83.8” for “4.8”, “2.28 mV)” for “0.60 milliseconds)”; format: functional, Canis lupus familiaris
[4] = tested on: Cardiac muscle of left ventricle; test: as §1, with “Vmax” for “conduction time”, “244.6” for “4.8”, “30.87 V/s)” for “0.60 milliseconds)”; format: functional, Canis lupus familiaris
[5] = tested on: Cardiac muscle of left ventricle; test: as §1, with “as action potential” for “as conduction”, “time duration” for “time”, “at 90% of repolarization at 10” for “at 1”, “value: 212.5” for “value: 4.8”, “+/- 16.25” for “+/- 0.60”; format: functional, Canis lupus familiaris
[6] = tested on: Cardiac muscle of left ventricle; test: as §1, with “as action potential” for “as conduction”, “time duration” for “time”, “at 75% of repolarization at 10” for “at 1”, “value: 199.7” for “value: 4.8”, “+/- 16.87” for “+/- 0.60”; format: functional, Canis lupus familiaris
[7] = tested on: Cardiac muscle of left ventricle; test: as §1, with “as action potential” for “as conduction”, “time duration” for “time”, “at 25% of repolarization at 10” for “at 1”, “value: 131.7” for “value: 4.8”, “+/- 13.1” for “+/- 0.60”; format: functional, Canis lupus familiaris
[8] = tested on: Cardiac muscle of left ventricle; test: as §1, with “action potential” for “conduction”, “time duration at 10% of repolarization” for “time”, “69.9” for “4.8”, “10.84” for “0.60”; format: functional, Canis lupus familiaris
[9] = tested on: Cardiac muscle of left ventricle; test: as §1, with “as action potential” for “as conduction”, “time duration” for “time”, “at 10% of repolarization at 10” for “at 1”, “value: 69.9” for “value: 4.8”, “+/- 10.84” for “+/- 0.60”; format: functional, Canis lupus familiaris
[10] = target: T1, Potassium/sodium hyperpolarization-activated cyclic nucleotide-gated channel 4 (Mus musculus) (UniProt O70507); test: Inhibition of HCN4 in C57BL/6J mouse thalamocortical relay neuron assessed as reduction in hyperpolarization current at 30 uM at holding potential of -120 mV by whole-cell patch clamp assay relative to control
T1 sequence (whole entry): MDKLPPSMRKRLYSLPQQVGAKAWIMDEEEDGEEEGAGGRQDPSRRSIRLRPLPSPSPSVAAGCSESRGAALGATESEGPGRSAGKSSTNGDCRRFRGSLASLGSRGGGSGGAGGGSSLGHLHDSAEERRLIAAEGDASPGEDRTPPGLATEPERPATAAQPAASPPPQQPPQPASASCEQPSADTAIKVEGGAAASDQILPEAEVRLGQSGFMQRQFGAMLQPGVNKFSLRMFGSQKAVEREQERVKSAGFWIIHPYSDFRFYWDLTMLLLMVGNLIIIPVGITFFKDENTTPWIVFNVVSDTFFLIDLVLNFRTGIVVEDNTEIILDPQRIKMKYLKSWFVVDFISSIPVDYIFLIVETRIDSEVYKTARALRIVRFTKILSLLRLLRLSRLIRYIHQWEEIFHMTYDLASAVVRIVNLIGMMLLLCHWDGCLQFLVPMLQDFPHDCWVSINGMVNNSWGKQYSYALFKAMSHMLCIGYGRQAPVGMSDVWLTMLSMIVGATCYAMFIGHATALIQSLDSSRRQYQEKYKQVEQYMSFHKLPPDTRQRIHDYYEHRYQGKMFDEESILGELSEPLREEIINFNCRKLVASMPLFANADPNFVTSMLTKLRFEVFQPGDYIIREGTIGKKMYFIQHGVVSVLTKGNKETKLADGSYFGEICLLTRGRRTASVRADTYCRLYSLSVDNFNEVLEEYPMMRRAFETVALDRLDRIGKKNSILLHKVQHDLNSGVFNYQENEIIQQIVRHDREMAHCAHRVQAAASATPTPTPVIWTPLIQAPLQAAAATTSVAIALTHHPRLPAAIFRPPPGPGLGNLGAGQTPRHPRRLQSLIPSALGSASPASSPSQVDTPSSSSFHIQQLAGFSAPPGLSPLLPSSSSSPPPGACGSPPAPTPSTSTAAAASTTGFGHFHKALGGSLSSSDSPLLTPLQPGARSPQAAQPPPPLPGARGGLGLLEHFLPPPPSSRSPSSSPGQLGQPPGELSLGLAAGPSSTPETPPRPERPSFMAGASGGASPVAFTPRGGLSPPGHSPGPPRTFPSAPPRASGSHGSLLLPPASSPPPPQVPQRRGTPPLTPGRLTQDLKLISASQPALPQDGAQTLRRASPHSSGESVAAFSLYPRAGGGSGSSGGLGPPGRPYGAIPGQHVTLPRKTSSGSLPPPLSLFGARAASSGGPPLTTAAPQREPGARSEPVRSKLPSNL

Mus musculus [11] = species on record: Mus musculus; test: Effect on voltage-dependent K+ channel in C57BL/6J mouse thalamocortical relay neuron assessed as inhibition of step depolarization-induced K+ outward current at 10 uM by whole cell patch clamp assay relative to control
Mus musculus [12] = species on record: Mus musculus; test: Effect on transient A type potassium channel in C57BL/6J mouse thalamocortical relay neuron assessed as effect on early transient current at 10 uM by whole cell patch clamp assay relative to control

Potassium/sodium hyperpolarization-activated cyclic nucleotide-gated channel 1, sequence (O88704 whole entry, the tested form may be a part): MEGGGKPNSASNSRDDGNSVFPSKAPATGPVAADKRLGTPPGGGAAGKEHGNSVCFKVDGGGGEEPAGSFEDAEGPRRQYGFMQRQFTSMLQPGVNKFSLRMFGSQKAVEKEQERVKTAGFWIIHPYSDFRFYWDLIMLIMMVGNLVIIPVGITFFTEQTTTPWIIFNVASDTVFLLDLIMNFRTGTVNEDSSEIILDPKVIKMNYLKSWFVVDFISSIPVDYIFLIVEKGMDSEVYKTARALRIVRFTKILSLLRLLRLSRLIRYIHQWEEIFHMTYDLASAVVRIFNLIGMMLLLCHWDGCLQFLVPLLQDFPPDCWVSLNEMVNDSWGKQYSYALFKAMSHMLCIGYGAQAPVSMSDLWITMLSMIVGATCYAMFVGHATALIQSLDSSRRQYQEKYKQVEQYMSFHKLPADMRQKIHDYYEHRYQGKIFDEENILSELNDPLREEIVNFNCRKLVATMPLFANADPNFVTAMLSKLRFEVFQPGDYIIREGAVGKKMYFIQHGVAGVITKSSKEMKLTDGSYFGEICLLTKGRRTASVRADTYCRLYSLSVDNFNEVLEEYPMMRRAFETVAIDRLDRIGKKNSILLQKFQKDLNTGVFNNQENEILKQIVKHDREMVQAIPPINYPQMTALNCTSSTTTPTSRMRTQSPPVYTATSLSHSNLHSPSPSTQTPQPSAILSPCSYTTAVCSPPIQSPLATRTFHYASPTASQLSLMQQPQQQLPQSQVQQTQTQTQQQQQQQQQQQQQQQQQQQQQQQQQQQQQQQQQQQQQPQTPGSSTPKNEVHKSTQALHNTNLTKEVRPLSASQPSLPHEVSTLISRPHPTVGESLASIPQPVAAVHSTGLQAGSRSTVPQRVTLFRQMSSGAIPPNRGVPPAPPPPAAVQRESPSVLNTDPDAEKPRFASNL

EC50 [1]: 21 µM | inhibition [10]: 91.3% | inhibition (Mus musculus [11]): 14.5% | Activity (Mus musculus [12]): inactive
SMILES: COc1ccc(CCN(C)[C@@H]2CCC[C@H](N3CCc4cc(OC)c(OC)cc4CC3=O)C2)cc1OC (racemic)
Time [2]: 4.7 ms | Activity [3]: -84 mV | Activity [4]: 232.9 V/s | Time [5]: 220.2 ms | Time [6]: 206 ms | Time [7]: 125.1 ms | Time [8]: 58.6 ms | Time [9]: 55.7 ms
